From the supplement of paper PMC10307832

How the values were obtained:
Test in all cases: relative viability (nuclei count vs DMSO), 5 days (fraction); higher = more cells survive
Dasatinib + Pictilisib = compound: Cc1nc(Nc2ncc(C(=O)Nc3c(C)cccc3Cl)s2)cc(N2CCN(CCO)CC2)n1 [Dasatinib] + CS(=O)(=O)N1CCN(Cc2cc3nc(-c4cccc5[nH]ncc45)nc(N4CCOCC4)c3s2)CC1 [Pictilisib] (partner 1 µM)
Method in brief: (§1)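 Lung cancer cell lines were pin-tool dosed in 1536-well plates on the day after seeding, with either a lone drug or a fixed anchor-drug dose plus five library-drug doses (not always all listed) in √10 steps. Nuclei were counted on 4× images after 5 days. Relative viability is the ratio of treated-well to vehicle-well nuclei counts, with each value a median of duplicate plates.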

Dasatinib + AZD7762 = compound: Cc1nc(Nc2ncc(C(=O)Nc3c(C)cccc3Cl)s2)cc(N2CCN(CCO)CC2)n1 [Dasatinib] + NC(=O)Nc1cc(-c2cccc(F)c2)sc1C(=O)N[C@H]1CCCNC1 [AZD7762] (partner 0.2 µM)
Method in brief: as §1

ALW-II-49-7 + Olaparib = compound: Cc1ccc(C(=O)Nc2cccc(C(F)(F)F)c2)cc1Nc1cncc(C(N)=O)c1 [ALW-II-49-7] + O=C(c1cc(Cc2n[nH]c(=O)c3ccccc23)ccc1F)N1CCN(C(=O)C2CC2)CC1 [Olaparib] (partner 8 µM)
Method in brief: as §1

[1] = compound: Cc1ccc(C(=O)Nc2cccc(C(F)(F)F)c2)cc1Nc1cncc(C(N)=O)c1 [ALW-II-49-7] + CC(=O)c1c(C)c2cnc(Nc3ccc(N4CCNCC4)cn3)nc2n(C2CCCC2)c1=O [Palbociclib] (partner 0.5 µM)
Method in brief: as §1

| Cell Line | relative viability (Dasatinib + Pictilisib; first compound 0.005 µM) | relative viability (Dasatinib + Pictilisib; first compound 0.01581 µM) | relative viability (Dasatinib + Pictilisib; first compound 0.05 µM) | relative viability (Dasatinib + Pictilisib; first compound 0.1581 µM) | relative viability (Dasatinib + Pictilisib; first compound 0.5 µM) | relative viability (Dasatinib + AZD7762; first compound 0.005 µM) | relative viability (Dasatinib + AZD7762; first compound 0.01581 µM) | relative viability (Dasatinib + AZD7762; first compound 0.05 µM) | relative viability (Dasatinib + AZD7762; first compound 0.1581 µM) | relative viability (Dasatinib + AZD7762; first compound 0.5 µM) | relative viability (ALW-II-49-7 + Olaparib; first compound 0.08 µM) | relative viability (ALW-II-49-7 + Olaparib; first compound 0.253 µM) | relative viability (ALW-II-49-7 + Olaparib; first compound 0.8 µM) | relative viability (ALW-II-49-7 + Olaparib; first compound 8 µM) | relative viability ([1]; first compound 0.08 µM) | relative viability ([1]; first compound 0.253 µM) | relative viability ([1]; first compound 0.8 µM) | relative viability ([1]; first compound 2.53 µM) | relative viability ([1]; first compound 8 µM) | relative viability (ALW-II-49-7 + Olaparib; first compound 2.53 µM) |
| --- | --- | --- | --- | --- | --- | --- | --- | --- | --- | --- | --- | --- | --- | --- | --- | --- | --- | --- | --- | --- |
| HOP-62 | 0.636 | 0.581 | 0.565 | 0.223 | 0.143 | 0.481 | 0.585 | 0.626 | 0.268 | 0.167 | 0.162 | 0.378 | 0.595 | 0.172 | 0.49 | 0.423 | 0.461 | 0.33 | 0.336 | – |
| LC-2-ad | 0.397 | 0.346 | 0.237 | 0.128 | 0.0796 | 0.871 | 0.727 | 0.599 | 0.337 | 0.268 | 0.736 | 0.793 | 0.682 | 0.343 | 0.455 | 0.488 | 0.435 | 0.506 | 0.526 | 0.721 |
| LCLC-97TM1 | 0.206 | 0.206 | 0.192 | 0.18 | 0.12 | 0.161 | 0.274 | 0.218 | 0.17 | 0.0853 | 0.429 | 0.442 | 0.399 | 0.353 | 0.198 | 0.215 | 0.214 | 0.188 | 0.235 | 0.279 |
| LCLC-103H | 0.665 | 0.514 | 0.515 | 0.286 | 0.17 | 0.695 | 0.666 | 0.628 | 0.523 | 0.331 | 0.724 | 0.79 | 0.771 | 0.762 | 0.486 | 0.533 | 0.494 | 0.495 | 0.55 | 0.714 |
| LK-2 | 0.653 | 0.36 | 0.317 | 0.2 | 0.21 | 0.31 | – | 0.191 | 0.0866 | 0.129 | 0.803 | 0.682 | 0.576 | 0.817 | 0.767 | 0.487 | 0.63 | – | 0.673 | – |
| LOU-NH91 | 0.497 | 0.492 | 0.401 | 0.439 | 0.341 | 0.747 | 0.638 | 0.623 | 0.469 | 0.384 | 0.846 | 0.946 | 0.923 | 0.805 | 0.484 | 0.526 | 0.517 | – | 0.564 | – |
| LU99A | 0.332 | 0.347 | 0.293 | 0.25 | 0.194 | 0.399 | 0.35 | 0.277 | 0.215 | 0.171 | – | 0.292 | 0.249 | 0.288 | – | 0.403 | 0.39 | 0.377 | 0.359 | 0.254 |
| LXF-289 | 0.659 | 0.472 | 0.298 | 0.111 | 0.076 | 1.14 | 1.12 | 1.09 | 0.371 | 0.184 | 1.02 | 0.909 | 1.09 | 1.09 | 0.529 | 0.682 | 0.625 | 0.709 | 0.674 | 1.26 |
